According to PubChem BioAssay AID2423 (Broad Institute, 2010):
Records with an inconclusive call do not appear. Calls of active or inactive are those of the source. No rule for the calls is given here.

Test system: C. albicans CaCi-8 + fluconazole, Alamar Blue growth, 48 h
Assay: resistant C. albicans growth inhibition with fluconazole, dose response, CaCi-8 strain, Alamar Blue fluorescence (AID 2423)

| SMILES | EC50 |
| --- | --- |
| CCOC(=O)COc1ccc(S(=O)(=O)N2CCN(c3ccccc3F)CC2)cc1 | > 15000 nM (inactive) |
| O=C1c2ccccc2NC(c2ccc(-c3ccc(Br)cc3)o2)N1O (centres undefined) | 2120 nM |
| CCCCCCc1c(C)nc(-n2[nH]c(C)c(CCO)c2=O)[nH]c1=O | 1690 nM |
| Nc1nc(-c2ccccc2)c(N=Nc2ccccc2Cl)s1 | 6250 nM |
| Cc1ccc(C(C)C)c(OCc2ccc(C(=O)N/N=C/c3cccc(O)c3O)cc2)c1 | 788 nM |
| COc1cccc(C(C(=O)NC2CCCC2)N(C(=O)c2ccco2)c2ccc(-n3cnnn3)c(C)c2)c1OC (centres undefined) | > 15000 nM (inactive) |
| Cc1cc(C)cc(OCC(=O)NNC(=S)NC(=O)C2CC2)c1 | 646 nM |
| CCCC(=O)NC(c1ccc(Cl)cc1)c1ccc2cccnc2c1O (centres undefined) | 543 nM |
| COc1cccc(/C=N\NC(=O)c2ccc(Cn3cc(Br)c([N+](=O)[O-])n3)o2)c1O | 5070 nM |
| Cc1ccc(C2C3CSCC=C3C(C#N)=C(N)C2(C#N)C#N)cc1 (centres undefined) | 16300 nM |
| CCN1/C(=C/C=C/c2oc3ccc(-c4ccccc4)cc3[n+]2CC)Oc2ccc(-c3ccccc3)cc21 | 589 nM |
| NC(=O)c1ccc(Nc2nnc(-c3ccc(O)cc3)c3ccccc23)cc1 | 7930 nM |
| O=C(c1ccc2c(c1)OCO2)N1CCC2(CC1)Oc1ccc(Cl)cc1C(=O)C21CC(c2cccnc2)=NO1 (centres undefined) | 438 nM |
| CNC(=O)COC(=O)c1c2c(nc3ccccc13)CCC2 | > 16000 nM (inactive) |
| CCOC(=O)Cc1csc(NC(=O)c2ccc3ncsc3c2)n1 | 6820 nM |
| CCCC(=O)NC(c1ccco1)c1cc([N+](=O)[O-])c2cccnc2c1O (centres undefined) | 840 nM |
| Cc1cc2oc3ccc(NCCCn4ccnc4)cc3c(=O)c2cc1C | 1990 nM |
| CCC(=O)NC(c1ccc(C)cc1)c1cc([N+](=O)[O-])c2cccnc2c1O (centres undefined) | 513 nM |
| Cc1onc(-c2ccccc2)c1C(=O)N/N=C(\N)COc1ccc(Cl)cc1 | 14200 nM |
| CCn1c(NN=O)nc2ccccc21 | 7380 nM |
| Cc1nn(C)c(C)c1/C=C/C(=O)c1ccc(Cl)cc1Cl | 1640 nM |
| C=CCn1c(COc2ccc(F)cc2)nnc1SCC(=O)Nc1cccc(S(N)(=O)=O)c1 | > 16000 nM (inactive) |
| C=CCOc1ccc(/C=C2\SC(=S)N(NS(=O)(=O)c3ccc(C)cc3)C2=O)cc1 | 3290 nM |
| CCN(CC)c1ccc(/C=N/NC(=O)CNC(=O)C2COc3ccccc3O2)c(O)c1 (centres undefined) | 1110 nM |
| CC(=O)NC1CCCN(O)C(=O)/C=C(\C)CCOC(=O)C(NC(C)=O)CCCN(O)C(=O)/C=C(\C)CCOC(=O)C(NC(C)=O)CCCN(O)C(=O)/C=C(\C)CCOC1=O (centres undefined) | 783 nM |
| COCCNC(=O)CCCn1c(=O)c2cc(OC)c(OC)cc2n(CC(=O)NCCC2=CCCCC2)c1=O | 5380 nM |
| Nc1c(S(=O)(=O)c2ccccc2)c2nc3ccccc3nc2n1CCN1CCOCC1 | 2970 nM |

| SMILES | EC50 |
| --- | --- |
| O=C(NCC(=O)N(CC1CCCO1)C(C(=O)NC1CCCCC1)c1ccccc1)c1ccco1 (centres undefined) | > 15000 nM (inactive) |
| CCN(CC)c1ccc(/C=C/c2ccc3ccc(OC)cc3[n+]2CC)cc1 | 149 nM |
| CN(C)CCCNC(=O)c1ccc(-c2nc(-c3ccc(Cl)cc3)cs2)cc1 | 2610 nM |
| CNC(=S)N1N=C(c2ccccc2)CC1c1ccccc1Cl (centres undefined) | > 16000 nM (inactive) |
| COc1ccc2c(c1)/C(=C/c1cnc[nH]1)C(=O)N2 | 1250 nM |
| O=C(N/N=C/c1cc(Br)c(Br)o1)c1ccc2c(c1)OCCO2 | 643 nM |
| Nc1ncc(Br)cc1S(=O)(=O)Nc1cc(C(F)(F)F)cc(C(F)(F)F)c1 | 918 nM |
| CCCCc1c(O)nc(SCC(=O)Nc2cccc3ccccc23)n(-c2ccccc2OC)c1=O | 7770 nM |
| Oc1c(C(c2ccccn2)N2CCC(Cc3ccccc3)CC2)cc(Cl)c2cccnc12 (centres undefined) | 1880 nM |
| CCOc1ccccc1NC(=O)C(=O)N/N=C/c1cc(Br)ccc1O | 1380 nM |
| COc1cccc(N=Nc2ccc3cccnc3c2O)c1 | 430 nM |
| COc1cc(OC)cc(C(=O)Oc2c(CN3CCOCC3)cc(Cl)c3cccnc23)c1 | 2620 nM |
| COc1ccc(-[n+]2c(-c3ccccc3)cc(-c3ccccc3)cc2-c2ccccc2)cc1 | > 15000 nM (inactive) |
| O=C(Nc1ccncc1)c1ccc(Br)cc1 | > 15000 nM (inactive) |
| CCCC(=O)NC(c1ccc(C(C)C)cc1)c1ccc2cccnc2c1O (centres undefined) | 659 nM |
| CCCn1c(=N)n(CC(=O)c2ccc([N+](=O)[O-])cc2)c2ccccc21 | > 16000 nM (inactive) |
| O=C1c2ccccc2NC(c2ccc(-c3cccc(Cl)c3)o2)N1O (centres undefined) | 2000 nM |
| COc1ccc(-n2c(-c3cccc(C)c3[N+](=O)[O-])n[nH]c2=S)cc1 | 316 nM |
| COc1ccc(C(=O)C(CN2CCCC2)c2ccccc2)cc1 (centres undefined) | > 16000 nM (inactive) |
| Cc1ccsc1C(=O)OCC(=O)Nc1nnc(-c2ccccc2)o1 | 3120 nM |
| C[C@@H]1C[C@@H]2O[C@H]2/C=C\C=C\C(=O)Cc2c(Cl)c(O)cc(O)c2C(=O)O1 | 234 nM |
| Cc1ccc(-c2cc(-c3ccc(C)cc3)[n+](C)o2)cc1 | > 16000 nM (inactive) |
| NS(=O)(=O)c1cccc(NC(=S)NCc2ccc3c(c2)OCO3)c1 | > 16000 nM (inactive) |
| CCCc1nnc(NC(=S)Nc2ccccc2)s1 | 1340 nM |
| COc1ccc(-c2csc(-c3ccccc3)n2)c(OC)c1 | 3810 nM |
| COc1ccc(-c2cc(-c3c(O)c(OC)c4occc4c3OC)[nH]n2)cc1OC | > 16000 nM (inactive) |
| CCn1c(=S)[nH]c2scc(-c3cccs3)c2c1=O | > 16000 nM (inactive) |
